Square brackets hold non-standard residues; d marks the D form. Peptide text beside a SMILES is read from it.
System: pituitaries removed from 20 day old female rats
Assay: In Vitro Growth Hormone Release Study
Format: cell-based, rat
Conditions: mean ± SEM, control -180 ± 108
Protocol: Female rats of the CD-1 strain were housed in a constant temperature room at 24° C. with 14 hours light and 10 hours darkness. The rats were fed Purina brand rat chow ab libitum.
All studies were started between 0800 and 1000 hours.
Pituitaries were removed from 20 day old female rats. Two pituitaries were incubated at 36° C. in 1 ml of lactated Ringer's solution in 10 ml polytetrafluoroethylene beakers in a Dubnoff Shaker (90 cycles/min.). The pituitaries were incubated a total of 4 hours (P1, P2, I3, and I4). After two successive one hour preincubation periods (P1, P2), the peptide was added to the incubation medium hourly for 2 hours (I3, I4).
This in vitro study was performed in triplicate and a standard radioimmunoassay of growth hormone present in the incubation medium was performed in duplicate. The hormonal activity was calculated as the difference (Δ) of growth hormone (GH) levels between I3, I4 and P2, i.e., (I3 -P2) and (I4 -P2). P values were calculated by Students' t test using six growth hormone values for each value recorded.
The growth hormone radioimmunoassay reagents were distributed by the National Institute of Arthritis and […] (NIAMDD) program. The growth hormone values were calculated in terms of nanograms (ng) of a rat standard with a growth hormone potency of 0.61 units/mg.

## NCCCC[C@@H](N)C(=O)N[C@@H](Cc1ccc(O)cc1)C(=O)N[C@H](Cc1c[nH]c2ccccc12)C(=O)N[C@H](Cc1c[nH]c2ccccc12)C(=O)N[C@@H](Cc1ccccc1)C(N)=O [H2 N--D--Lys--Tyr--D--Trp--D--Trp--Phe--CONH2] (H-[dK]Y[dW][dW]F-NH2)
Peptide 1μg, P Value <0.01
  IN VITRO GROWTH HORMONE RELEASE (ΔGH, I3-P2 and I4-P2): 1046 ± 266 ngΔGH/ml incubation medium
Peptide 20μg, P Value <0.001
  IN VITRO GROWTH HORMONE RELEASE (ΔGH, I3-P2 and I4-P2): 1487 ± 197 ngΔGH/ml incubation medium
Peptide 100μg, P Value <0.001
  IN VITRO GROWTH HORMONE RELEASE (ΔGH, I3-P2 and I4-P2): 1654 ± 329 ngΔGH/ml incubation medium

Source: patent US4223019A, “Synthetic peptides having pituitary growth hormone releasing activity” (Beckman Instruments, Inc., priority 1979, dated 1980)
